Where two headings read alike, the source gives them in different places.
Tests used:
Format in all cases: in vivo, human
[1] = Renal impairment study: PK after a single 12 mg oral dose of CTP-543; details: for Tmax / AUC(0-t) / AUC(0-inf) / Cmax / Vd/F / half-life: human, plasma, po, 12 mg; for Tmax / AUC(0-t) / AUC(0-inf) / Cmax / Vd/F / half-life / CL/F (geometric mean) / Clast (geometric mean): single 12 mg oral dose of CTP-543, outlier excluded; for AUC(0-t): read-out: AUC0-Tlast (geometric mean); for AUC(0-inf): read-out: AUC0-inf (geometric mean); for Cmax: read-out: Cmax (geometric mean); for Vd/F: read-out: Vz/F (geometric mean); for half-life: read-out: terminal elimination half-life (geometric mean) (converted)
Text: The study enrolled 8 subjects in the normal renal function cohort, and 8 subjects in the moderate impaired renal function cohort.
The primary endpoint of this study was single dose PK exposure parameters: Cmax, AUC(0-Tlast), and AUC(0-∞).
The secondary endpoints of this study were: • Adverse Events, clinical laboratory findings, physical examinations, ECGs, and vital signs. • Other PK parameters, such as, but not limited to: Tmax, λz, t1/2, CL/F, and Vz/F.
All subjects had samples collected for PK.
PK parameters were determined using non-compartmental analysis (NCA) methods based on individual plasma concentration-time data for all PK analytes.

[2] = test system: adult subjects with moderate to severe AA; test: Phase III trial: Hospital Anxiety and Depression Scale (HADS); details: for HADS anxiety scale, LS mean change from baseline / HADS anxiety scale, LS mean treatment group difference from placebo / HADS depression scale, LS mean change from baseline / HADS depression scale, LS mean treatment group difference from placebo: Week 24
Text: The Hospital Anxiety and Depression Scale (HADS) is used to measure anxiety and depression in a general medical population of subjects. HADS comprises of 14 items (7 items each for anxiety and depression), with a score ranging between 0 and 21 for the anxiety and depression subscales. Scores between 8 and 10 indicate a moderate presence of symptoms of anxiety and depression, whereas a score greater than 11 indicates a significant number of symptoms of anxiety and depression that likely correspond with a clinical diagnosis. The total HADS score may be regarded as a global measure of psychological distress (Roberts et al, 2001; Johnston et al, 2000). A negative change in a subject's HADS score from a starting timepoint to an end point during treatment, e.g. from baseline to Week 24 of treatment, indicates an improvement in symptoms of anxiety and depression. The HADS questionnaire was completed by subjects at baseline and Week 24. The term “baseline” as used herein refers to the HADS score (or HADS-A or HADS-D score) determined before administration of Compound (I).
Approximately 440 adult male and female subjects 18 to 65 years of age, inclusive, with moderate to severe AA participated in the study. Subjects with definitive diagnosis of AA, and at least 50% hair loss, as defined by a SALT score ≥50, who met all of the inclusion criteria and none of the exclusion criteria participated in the study.
(§1) The Screening Period lasted up to 28 days prior to initiation of study drug. […] Randomization was stratified by scalp hair loss into 1 of the following 2 categories: 1) partial scalp hair loss (SALT ≥50 and <95), 2) complete or near complete scalp hair loss (SALT ≥95).
(§2) Additional secondary efficacy endpoints included the following: • Relative change in SALT scores from baseline at Weeks 4, 8, 12, 16, 20, and 24. • Percentage of responders (defined as “much improved” or “very much improved”) using the Clinical Global Impression of Improvement (CGI-I) at Weeks 12, 16, 20, and 24. • Percentage of responders (defined as “much improved” or “very much improved”) using the Patient Global Impression of Improvement (PGI-I) at Weeks 12, 16, 20, and 24. • Change from baseline in the Clinical Global Impression of Severity (CGI-S) at Weeks 12, 16, 20, and 24. • Change from baseline in the Patient Global Impression of Severity (PGI-S) at Weeks 12, 16, 20, and 24. • Change from baseline on the Brigham Eyebrow Tool for Alopecia (BETA) score at Weeks 12 and 24. • Change from baseline on the Brigham Eyelash Tool for Alopecia (BELA) score at Weeks 12 and 24. • Percentage of subjects achieving at least a 75% relative reduction in SALT score from baseline at Weeks 12 and 24. • Percentage of subjects achieving at least a 90% relative reduction in SALT score from baseline at Weeks 12 and 24. • Percentage of responders (defined as “satisfied” or “very satisfied”) on the SPRO scale at Weeks 12, 16, and 20. • Change from baseline in the SPRO scale at Weeks 12, 16, 20, and 24. • Percentage of subjects achieving a ≥2-point change from baseline in the SPRO scale at Weeks 12, 16, 20, and 24. • Change from baseline on the individual items of the Hair Quality Patient Reported Outcome (QPRO) scale at Weeks 12, 16, 20, and 24. • Change from baseline in the depression scale of the Hospital Anxiety and Depression Scale (HADS) at Week 24. • Change from baseline in the anxiety scale of the HADS at Week 24. • Percentage of subjects achieving an absolute SALT score of ≤20 at Week 4. • Percentage of subjects achieving an absolute SALT score of ≤10 at Week 24
Changes from baseline to Week 24 in the depression scale of subjects who were randomized to treatment with deuruxolitinib 8 mg twice daily (BID), deuruxolitinib 12 mg BID, or placebo for 24 weeks were measured. Subjects completed the HADS 14-item questionnaire with 7 items for anxiety (HADS-A) and 7 items for depression (HADS-D).

[3] = test system: adult subjects with moderate to severe AA; test: Phase III trial: Clinical Global Impression of Improvement (CGI-I); details: non-missing data
Method: The CGI-I was assessed by the investigator. Compared to the subject's alopecia areata prior to treatment at baseline, the subject's current state of alopecia areata was assessed according to the investigator's perceived change. The investigator selected 1 of 7 numeric choices representing “Very Much Worse” to “Very Much Improved.” To reduce variability, 1 rater was to perform the CGI-I assessment for the subject for the duration of the study.
A Phase III trial was conducted to assess the efficacy and safety of CTP-543 in adult subjects with moderate to severe AA. Approximately 440 adult male and female subjects 18 to 65 years of age, inclusive, with moderate to severe AA participated in the study. Subjects with definitive diagnosis of AA, and at least 50% hair loss, as defined by a SALT score ≥50, who met all of the inclusion criteria and none of the exclusion criteria participated in the study.
as §1, §2
Subjects with responses of “very much improved” or “much improved” were considered CGI-I responders. […] Detailed data are described below. At each visit, the percentage of CGI-I responders (non-missing data) was as follows: […]

[4] = compared to healthy control subjects
[5] = moderate renal impairment N = 7

Which results are given for [2H]C1([2H])C([C@@H](CC#N)n2cc(-c3ncnc4[nH]ccc34)cn2)C([2H])([2H])C([2H])([2H])C1([2H])[2H] [CTP-543, (R)-3-(4-(7H-pyrrolo[2,3-d]pyrimidin-4-yl)-1H-pyrazol-1-yl)-3-(cyclopentyl-2,2,3,3,4,4,5,5-d8) propanenitrile]?
effect of moderate renal impairment on Cmax [1, 4]: without altering Cmax; increase of plasma AUC by moderate renal impairment [1, 4]: approximately 24%; Tmax [1, 5]: 0.5 h; AUC(0-t) [1, 5]: 1040 ng·h/mL; AUC(0-inf) [1, 5]: 1050 ng·h/mL; Cmax [1, 5]: 207 ng/mL; Vd/F [1, 5]: 72.1 L; half-life [1, 5]: 4.36 h; Tmax ([1]; normal renal function N = 8): 0.71 h; AUC(0-t) ([1]; normal renal function N = 8): 836 ng·h/mL; AUC(0-inf) ([1]; normal renal function N = 8): 843 ng·h/mL; Cmax ([1]; normal renal function N = 8): 199 ng/mL; Vd/F ([1]; normal renal function N = 8): 85.6 L; half-life ([1]; normal renal function N = 8): 4.17 h; CL/F (geometric mean) [1, 5]: 11.3 L/h; Clast (geometric mean) [1, 5]: 0.977 ng/mL; CL/F (geometric mean) ([1]; normal renal function N = 8): 14.2 L/h; Clast (geometric mean) ([1]; normal renal function N = 8): 0.698 ng/mL; HADS anxiety scale, LS mean change from baseline ([2]; 8 mg BID): −1.1; HADS anxiety scale, LS mean treatment group difference from placebo ([2]; 8 mg BID): 0.5; HADS depression scale, LS mean change from baseline ([2]; 8 mg BID): −1.2; HADS depression scale, LS mean treatment group difference from placebo ([2]; 8 mg BID): 0.8; HADS anxiety scale, LS mean change from baseline ([2]; 12 mg BID): −0.9; HADS anxiety scale, LS mean treatment group difference from placebo ([2]; 12 mg BID): 0.2; HADS depression scale, LS mean change from baseline ([2]; 12 mg BID): −1.5; HADS depression scale, LS mean treatment group difference from placebo ([2]; 12 mg BID): 1.1; subjects achieving a ≥3-point improvement in the HADS-D score ([2]; baseline to Week 24, 8 mg BID): 26.2%; subjects achieving a ≥4-point improvement in the HADS-A score ([2]; baseline to Week 24, 8 mg BID): 18.9%; percentage of CGI-I responders (very much improved or much improved) ([3]; Week 24, 8 mg BID): 54.1%; percentage of CGI-I responders (very much improved or much improved) ([3]; Week 24, 12 mg BID): 61.7%; percentage of CGI-I responders (very much improved or much improved) ([3]; week 12, 8 mg BID): 38.0%; percentage of CGI-I responders (very much improved or much improved) ([3]; week 12, 12 mg BID): 44.3%; percentage of CGI-I responders (very much improved or much improved) ([3]; week 16, 8 mg BID): 45.0%; percentage of CGI-I responders (very much improved or much improved) ([3]; week 16, 12 mg BID): 52.0%; percentage of CGI-I responders (very much improved or much improved) ([3]; week 20, 8 mg BID): 50.0%; percentage of CGI-I responders (very much improved or much improved) ([3]; week 20, 12 mg BID): 9.0%

Reference: patent publication US20250114367A1, “METHOD OF TREATING HAIR LOSS DISORDERS” (Sun Pharmaceutical Industries, Inc., priority 2023, published 2025)
